Measurements reported in article PMC1940322, “The Effect of PPARα, PPARδ, PPARγ, and PPARpan Agonists on Body Weight, Body Mass, and Serum Lipid Profiles in Diet-Induced Obese AKR/J Mice” (PPAR Research, 2007).

Key:
Format in all cases: in vivo
[1] = tested on: diet-induced obese (DIO) AKR/J mouse; test: Food consumption in diet-induced obese AKR/J mice; conditions: compared to vehicle-treated animals; doses and regimen as in methods
Method: (§1) In each experiment, BW of each animal was measured and recorded three times weekly throughout the treatment period. Body mass was obtained weekly on days 0, 7, 13, 20, and 27 of treatment. The effects of selective PPARα, δ, and γ agonists on food consumption were also assessed. Food consumption is expressed as total energy consumed (kcal) over a 24-period and as cumulative consumption over the course of the experiment.
The fat content of Research Diets D12331 chow results in pellets that crumbles making it difficult to quantify food consumption thus, Research Diets D12451 chow (4.7 kcal/g (45% kcal from fat, 35% kcal from carbohydrates and 20% kcal from protein)) was used in studies where food consumption was determined as these pellets are more solid. The animals were transitioned two weeks before compound dosing from Research Diets D12331 chow to Research Diets D12451 chow. Previous experiments (data not presented) have shown that animals fed this diet maintain the same BW and fat mass level as observed at the time of transition.
(§2) Experiment 1 was designed to study the effects of a selective PPARα agonist and PPARδ agonist as mono and combination therapy. 48 mice were sorted into 6 groups and blocked such that initial BW and body composition were not different between groups. […] Two additional groups of mice were dosed for the first 14 days with either a PPARα agonist or a PPARδ agonist alone. At day 15, the PPARδ agonist was added to the treatment regimen of animals dosed with PPARα, and the PPARα agonist was added to the dosing material of animals previously dosed with PPARδ alone. The sixth group was dosed with both the PPARα and PPARδ agonists for the entire 28-day period. BW and food consumption were assessed 3 times per week and body composition was measured weekly.
In Experiment 2, 32 mice were sorted into 4 groups (n = 8/group) and dosed with vehicle and a selective PPARγ agonist (GW7845, 3 mg/kg) for 28 days. Rimonabant (RIM, 10 or 30 mg/kg, q.d.), a CB1 receptor antagonist, was used as a positive control for weight loss. As in Experiment 1, BW and food consumption were determined 3 times per week and body composition was measured weekly.

[2] = tested on: diet-induced obese (DIO) AKR/J mouse; test: Body weight, body composition (qMR) and liver weight in diet-induced obese AKR/J mice; conditions: for BW day 0: baseline before treatment; for Fat mass day 28 / Lean mass day 28: qMR; for Liver weight: terminal collection
Method: The effects of monotherapy with selective PPAR agonists, combination therapy with PPARα and PPARδ, and treatment with PPARpan agonists were evaluated in four experiments in diet-induced obese (DIO) AKR/J mouse. The AKR/J mouse is a polyoma-susceptible strain originally utilized to study accelerated tumor development. This strain becomes obese and hyperinsulemic when fed a high fat diet. Age-matched, male AKR/J mice were allowed ad libitum access to Research Diet D12331 (Research Diet, Brunswick, NJ) at the Jackson Laboratories (Bar Harbor, ME) beginning at 6 weeks of age. The diet has an energy density of 5.56 kcal/g (58% kcal from fat; 26% kcal from carbohydrates, and 16% kcal from protein). The animals were allowed to become obese, achieving BW >40 grams before shipping to GlaxoSmithKline laboratory animal facility at 13 weeks of age. The mice were housed 4 per cage in standard shoebox cages and were fed the high fat diet until they reached approximately 50 grams. Age-matched lean control animals obtained from Jackson Laboratories were fed a diet of normal chow (3.04 kcal/g energy density, 12% kcal from fat, LabDiet 5001, St. Louis, MO) and used for comparison.
At the beginning of each study, the animals were weighed and body composition obtained using an EchoMRI-100 quantitative magnetic resonance (qMR, EchoMRI, Houston, TX) whole body composition analyzer. […] 16 lean control mice on standard chow were used as reference. All mice were dosed orally with vehicle (0.5% methylcellulose and 0.1% Tween 80, 10 mL/kg) for six days prior to the beginning of dosing for acclimation to handling and treatment before drug treatment was initiated.
as §1
(§3) On the final day of each experiment, a terminal blood sample (800–1000 μL) was obtained via cardiac puncture under isoflurane anesthesia. Whole blood was placed in a Terumo Capiject blood collection tube (Terumo Medical Corp., Elkton, Md, USA), allowed to sit at room temperature for 20 minutes then centrifuged to obtain serum. Serum levels of glucose, triglycerides, glycerol, nonesterified fatty acids, total cholesterol, the high-density lipoprotein cholesterol, and β-hydroxybutyrate were determined in all mice using an Olympus AU640 clinical chemistry immuno-analyzer (Olympus America Inc., Melville, NY, USA). In addition, liver weights were obtained following the terminal blood sample on the final day of the study and samples were used to determine liver fatty acid oxidation activity.
as §2
In Experiment 2, 32 mice were sorted into 4 groups (n = 8/group) and dosed with vehicle and a selective PPARγ agonist (GW7845, 3 mg/kg) for 28 days. Rimonabant (RIM, 10 or 30 mg/kg, q.d.), a CB1 receptor antagonist, was used as a positive control for weight loss. […]

[3] = tested on: diet-induced obese (DIO) AKR/J mouse; test: Serum clinical chemistry of terminal blood samples, DIO AKR/J mice; conditions: serum, end of treatment, 28 days
Method: as §3

Cc1c(C(=O)NN2CCCCC2)nn(-c2ccc(Cl)cc2Cl)c1-c1ccc(Cl)cc1 [RIM, Rimonabant, reference compound]
effect on food consumption (in words) [1]: dose-related decreases in food consumption
BW day 28 ([2]; 10 mg/kg oral, 28 days): 44.1 ± 1.3 grams
BW day 28 ([2]; 30 mg/kg oral, 28 days): 41.8 ± 0.5 grams
effect on FM (in words) ([2]; 28 days, doses as in methods): decreased FM in a dose-dependent manner
BW day 0 ([2]; group dosed 10 mg/kg oral): 50.6 ± 0.8 grams
BW day 0 ([2]; group dosed 30 mg/kg oral): 51.0 ± 0.7 grams
reduction of BW ([2]; highest dose (30 mg/kg), within the first 10 days of treatment): 17%
effect on BW (in words) ([2]; oral, 28 days, GW9578 1, GW0742 30, GW7845 3, RIM 10 and 30 mg/kg, PPARpan agonists): significant, dose-related decreases of BW
Fat mass day 28 ([2]; 10 mg/kg oral, 28 days): 15.0 ± 0.9 grams
Lean mass day 28 ([2]; 10 mg/kg oral, 28 days): 25.2 ± 0.8 grams
Fat mass day 28 ([2]; 30 mg/kg oral, 28 days): 11.6 ± 0.3 grams
Lean mass day 28 ([2]; 30 mg/kg oral, 28 days): 26.5 ± 0.5 grams
Liver weight ([2]; 10 mg/kg oral, 28 days): 2.0 ± 0.1 grams
Liver weight ([2]; 30 mg/kg oral, 28 days): 2.0 ± 0.1 grams
Cholesterol ([3]; 10 mg/kg oral): 147.3 ± 9.1 mg/dL
Glucose ([3]; 10 mg/kg oral): 230.1 ± 16.6 mg/dL
HDL-C ([3]; 10 mg/kg oral): 95.1 ± 4.6 mg/dL
Insulin ([3]; 10 mg/kg oral): 7.2 ± 2.5 ng/mL
NEFA ([3]; 10 mg/kg oral): 0.8 ± 0.05 mEq/L
Triglyceride ([3]; 10 mg/kg oral): 181.4 ± 36.1 mg/dL
bHBA ([3]; 10 mg/kg oral): 2.5 ± 0.2 mg/dL
Cholesterol ([3]; 30 mg/kg oral): 143.4 ± 4.0 mg/dL
Glucose ([3]; 30 mg/kg oral): 215.3 ± 13.0 mg/dL
HDL-C ([3]; 30 mg/kg oral): 116.9 ± 2.6 mg/dL
Insulin ([3]; 30 mg/kg oral): 3.4 ± 0.7 ng/mL
NEFA ([3]; 30 mg/kg oral): 0.9 ± 0.02 mEq/L
Triglyceride ([3]; 30 mg/kg oral): 159.7 ± 16.1 mg/dL
bHBA ([3]; 30 mg/kg oral): 1.8 ± 0.2 mg/dL
